Tests used:
TFAM promoter = TFAM promoter luciferase assay in primary WT myoblasts treated with DMOG; type: cell-based, mouse; conditions: DMOG versus DMSO
Protocol: TFAM promoter, VHL promoter, HRE and c-Myc activity were determined using a luciferase-based system. Luciferase activity was measured using the Dual-Luciferase Reporter Assay System (Promega) with Renilla as the reference.
TFAM promoter activity was evaluated using a TFAM promotes-luc plasmid. A fragment of the mouse Tfam promoter (1.4 kb upstream of the coding sequence) was cloned into a pGL4.15 vector (Promega). Luciferase activity was measured using the Dual-Luciferase Reporter Assay System (Promega) with Renilla as the reference 48 h after transfection.
c-Myc was previously shown to directly bind to the TFAM promoter in cancer cells (Li et al., 2005) and consistent with this report, it was observed that knockdown of c-Myc in primary myoblasts leads to decreased TFAM promoter activity (FIG. 16E). Mutation of the c-Myc consensus sequence, CACGTG, present in the TFAM promoter decreased the promoter activity by about half of the full length promoter (FIG. 16F). […] Next it was tested whether c-Myc binding site was required for SIRT1's ability to induce TFAM promoter activity. Overexpression of SIRT1 in primary myoblasts lead to an increase in the full length TFAM promoter activity, however disruption of c-Myc binding site was sufficient to completely prevent the ability of SIRT1 to induce TFAM promoter activity (FIG. 16H). […]

C2C12 myoblasts = experiment: DMOG treatment of C2C12 myoblasts, mtDNA content and ETC gene expression; type: cell-based, mouse; conditions: 16 h
Protocol: To test if the normal hypoxic response reproduces the effect of a SIRT1 deletion by causing genome asynchrony, C2C12 myoblasts were grown under hypoxic conditions (1% oxygen) or treated with dimethyloxaloylglycine (DMOG), a HIFα prolyl hydroxylase inhibitor that stabilizes HIF.
C2C12 cell line (ATCC) was cultured in low glucose Dulbecco's modified eagle medium (DMEM) (Invitrogen) supplemented with 10% FBS (Invitrogen) and a mix of antibiotic and antimycotic (Invitrogen). To inhibit SIRT1, cells were treated the vehicle (0.001% DMSO) or 10 μM EX-527 (Tocris) for 12 h. C2C12 myoblasts were infected with an empty or SIRT1 adenovirus as described before (Gerhart-Hines et al., 2007) and the media was replaced with fresh DMEM for additional 48 h, after that the cells were treated as described before. To test the effects of hypoxia and HIFα stabilization in genome asyncrony, C2C12 myoblasts were exposed to 1% oxygen for 16 h or treated with the vehicle (0.001% DMSO) or DMOG (Cayman) for the same period of time.
RNA from skeletal muscle tissue and C2C12 cells were extracted with RNeasy mini kit (Qiagen) according to the instructions and quantified using the NanoDrop 1000 spectrophotometer (Thermo Scientific). cDNA was synthesized with the iSCRIP cDNA synthesis kit (BioRad) using 600 ng of RNA. Quantitative RT-PCR reactions were performed using 1 μM of primers and LightCycler® 480 SYBR Green Master (Roche) on an LightCycler® 480 detection system (Roche). Calculations were performed by a comparative method (2-ΔCT) using 18S as an internal control. For mtDNA analysis, total DNA was extracted with DNeasy blood and tissue kit (Qiagen). mtDNA was amplified using primers specific for the mitochondrial cytochrome c oxidase subunit 2 (COX2) gene and normalized to genomic DNA by amplification of the ribosomal protein s18 (rps18) nuclear gene. Primers were designed using the IDT software (IDT) and the primer sequences can be found in Table 1.

Egln1 KO mice = experiment: NMN treatment of Egln1 KO mice; type: in vivo, mouse; conditions: skeletal muscle of Egln1 KO mice compared to WT controls; NMN 500 mg/kg IP, 7 days
Protocol: Whole body adult-inducible Egln1 knockout mice (Minamishima et al, 2007) were treated with IP injection of tamoxifen for 3 days after which they were allowed to rest. The mice were given interperitoneal (IP) injections of 500 mg NMN/kg body weight per day or the equivalent volume of PBS for 7 consecutive days at 5:00 pm and 7:00 am on day 8 and sacrificed 4 hr after last injection. All animal studies followed the guidelines of and were approved by the Harvard Institutional Animal Care and Use Committee.
ATP content was measured with a commercial kit according to the manufacturer's instructions (Roche).
RNA from skeletal muscle tissue and C2C12 cells were extracted with RNeasy mini kit (Qiagen) according to the instructions and quantified using the NanoDrop 1000 spectrophotometer (Thermo Scientific). cDNA was synthesized with the iSCRIP cDNA synthesis kit (BioRad) using 600 ng of RNA. Quantitative RT-PCR reactions were performed using 1 μM of primers and LightCycler® 480 SYBR Green Master (Roche) on an LightCycler® 480 detection system (Roche). Calculations were performed by a comparative method (2-ΔCT) using 18S as an internal control. […]

SIRT1 KO mice = experiment: NMN treatment of inducible SIRT1 KO mice; type: in vivo, mouse; conditions: skeletal muscle of SIRT1 KO versus WT mice
Protocol: Whole body adult-inducible SIRT1 knockout mice were treated with tamoxifen for 5 weeks and the efficiency of deletion in DNA from tail samples was determined by PCR. Animals were then maintained on regular diet for 4 months. For the fasting experiments, mice were fasted for 16 hrs prior to sacrifice. All animal care followed the guidelines and was approved by the Institutional Animal Care and Use Committees (IACUCs) at Harvard
The inducible SIRT1 KO mouse allowed the testing of the involvement of SIRT1 in the effects of NMN in vivo.
C57BL/6J mice of 6, 22, or 30 months of age were obtained from the National Institutes of Aging mouse aging colony. Additionally 22 months old caloric restricted mice were also obtained from the National Institutes of Aging mouse aging colony. EGLN1 KO, SIRT1 KO and SIRT1 OE mice were generated as previously described (Minamishima et al., 2008; Price et al., 2012). […]
RNA from skeletal muscle tissue and C2C12 cells were extracted with RNeasy mini kit (Qiagen) according to the instructions and quantified using the NanoDrop 1000 spectrophotometer (Thermo Scientific). cDNA was synthesized with the iSCRIP cDNA synthesis kit (BioRad) using 600 ng of RNA. Quantitative RT-PCR reactions were performed using 1 μM of primers and LightCycler® 480 SYBR Green Master (Roche) on an LightCycler® 480 detection system (Roche). […]

SMILES | full length TFAM promoter activity (TFAM promoter) | TFAM promoter activity, c-Myc consensus sequence mutation (TFAM promoter; in the absence of the c-Myc binding site) | expression of mitochondrially-encoded ETC genes (C2C12 myoblasts) | expression of nuclear-encoded ETC components (C2C12 myoblasts) | mtDNA content (C2C12 myoblasts) | ATP levels (Egln1 KO mice) | mitochondrial-encoded genes (Egln1 KO mice) | ability of NMN to induce mitochondrially-encoded genes (SIRT1 KO mice; qPCR) | ability of NMN to improve mitochondrial function (SIRT1 KO mice; mitochondrial membrane potential (FIG. 10I))
COC(=O)CNC(=O)C(=O)OC [DMOG, dimethyloxaloylglycine] | reduces | does not have an additive effect | specific decline | but not the nuclear-encoded components | specific decline | – | – | – | –
NC(=O)c1ccc[n+]([C@@H]2O[C@H](COP(=O)([O-])O)[C@@H](O)[C@H]2O)c1 [NMN, nicotinamide mononucleotide] | – | – | – | – | – | did not restore | did not restore | lost in animals lacking SIRT1 | lost in animals lacking SIRT1

Source: patent US20200291100A1, “TREATMENT OF AGE-RELATED AND MITOCHONDRIAL DISEASES BY INHIBITION OF HIF-1 ALPHA FUNCTION” (President and Fellows of Harvard College, priority 2012, published 2020)
